Laboratory results taken from publication PMC12254266, “Multicolored sequential resonance energy transfer for detection of simultaneous ligand binding at G protein-coupled receptors” (Nature Communications, 2025).
Where “and” joins values, the source holds several entries; their conditions need not be identical. Equal values may be shown once. Read-outs that look alike come from different tables or passages of the source.

Columns and labels:
Aqueous solubility = assay type: physicochemical; conditions: in words, relative to previous analogues
Nluc-FFA1 = biological target: T1, Nluc-FFA1 (Homo sapiens, UniProt O14842); assay: NanoBRET binding (saturation, competition, kinetics) at N terminal Nluc tagged FFA1
T1 construct: expressed in transfected cells
T1 sequence (O14842 whole entry): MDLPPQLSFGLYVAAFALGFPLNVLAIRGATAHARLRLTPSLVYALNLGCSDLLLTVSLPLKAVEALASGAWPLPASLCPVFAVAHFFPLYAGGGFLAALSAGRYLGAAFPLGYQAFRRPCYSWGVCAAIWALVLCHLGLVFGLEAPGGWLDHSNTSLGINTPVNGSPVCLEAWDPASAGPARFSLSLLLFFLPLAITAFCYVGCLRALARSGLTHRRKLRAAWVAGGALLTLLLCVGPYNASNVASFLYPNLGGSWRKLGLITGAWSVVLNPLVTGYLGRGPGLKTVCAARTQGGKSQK

FFA1-Nluc = FFA1-Nluc (Homo sapiens, UniProt O14842); assay: NanoBRET binding (saturation, kinetics) at C terminal Nluc tagged FFA1; design: expressed in transfected cells
Sequence of FFA1-Nluc (O14842 whole entry): as above
Summary of the method: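 Doxycycline-induced (100 ng/mL, 24 h) FFA1-Nluc Flp-In T-REx 293 cells in HBSS with NanoGlo substrate (1:800). Endpoint binding used 5 min with fluorescent ligand at 37 °C. Kinetics were read at 25 °C: association ~10 min, then dissociation with excess competitor for 30 min. The read-out was the acceptor/donor BRET ratio.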

[1] = Nluc-FFA1, multiple concentration of labelled ligand association model

COc1ccc(C(=O)N(CC(C)(C)CNc2ccc([N+](=O)[O-])c3nonc23)c2cccc(C)n2)c(N2CCC(COc3cccc(C(CC(=O)O)C4CC4)c3)CC2)c1.O=C(O)C(F)(F)F (stereo not shown) [TUG-2597]
aqueous solubility (Aqueous solubility): improved aqueous solubility | Specific BRET (Nluc-FFA1; Nluc-FFA1 (Fig 1F), percentage of the maximal signal, [TUG-2597] 550 nM): 73.921% and 62.249% and 55.324% and 54.737% and 83.741% and 100.190% | Kd (Nluc-FFA1; Nluc-FFA1, 95% confidence interval in parentheses, read-out: Kd, saturation BRET binding): 390 nM | Specific BRET (540/450) Ratio (Nluc-FFA1; Nluc-FFA1, [TUG-2597] 100 nM): 0.0112 and 0.0100 and 0.0162 and 0.0091 and 0.0128 and 0.0161 | Specific BRET (540/450) Ratio (Nluc-FFA1; Nluc-FFA1, [TUG-2597] 550 nM): 0.0530 and 0.0471 and 0.0466 | Specific BRET (540/450) Ratio (Nluc-FFA1; Nluc-FFA1, [TUG-2597] 1000 nM): 0.0547 and 0.0609 and 0.0560 and 0.0683 and 0.0664 and 0.0577 | kOn Nano-BRET (Nluc-FFA1; Nluc-FFA1, association then dissociation model): 58333.33 M⁻¹ s⁻¹ | kOff Nano-BRET (Nluc-FFA1; Nluc-FFA1, association then dissociation model, TUG-2591 100 nM then TUG-905 10 μM, or TUG-2597 […] then T360 10 μM): 0.00633 s⁻¹ | Kd (Nluc-FFA1; Nluc-FFA1, association then dissociation model, read-out: Kd Nano-BRET (kinetic)): 110 nM | kOff Nano-BRET Multiple Concentration (Nluc-FFA1; [1]): 0.0065 s⁻¹ | kOn Nano-BRET Multiple Concentration (Nluc-FFA1; [1]): 12000 M⁻¹ s⁻¹ | Kd (Nluc-FFA1; Nluc-FFA1, read-out: Kd Nano-BRET Multiple Concentration (kinetic)): 540 nM | kOff Nano-BRET Allosterism, Nluc-FFA1 (Nluc-FFA1; TUG-2591 (1 μM) in the presence of T360 (30μM), TUG-2597 (1 μM) in the presence of TUG-905 (30μM), 95% CI in parentheses): 0.20 (0.195-0.203) min-1 | Kd (Nluc-FFA1; footnotes of Supplementary Table 3, read-out: Kd values obtained in NanoBRET saturation experiments (used for pKi) (converted)): 380 nM | Kd (Nluc-FFA1; using either Nluc location (N or C terminal), read-out: Kd, saturation NanoBRET): 350 to 440 nM | Specific BRET (FFA1-Nluc; FFA1-Nluc (Fig 1E), percentage of the maximal signal, [TUG-2597] 550 nM): 49.872% and 58.619% and 50.406% and 58.181% and 46.189% | Kd (FFA1-Nluc; FFA1-Nluc, 95% confidence interval in parentheses, read-out: Kd, saturation BRET binding): 380 nM | Specific BRET (540/450) Ratio (FFA1-Nluc; FFA1-Nluc, [TUG-2597] 550 nM): 0.0328 and 0.0282 | kOff Nano-BRET Allosterism, FFA1-Nluc (FFA1-Nluc; TUG-2597 (1 μM) in the presence of TUG-905 (30μM), 95% CI in parentheses): 0.24 (0.23-0.25) min-1 | kOff Nano-BRET Single Concentration (FFA1-Nluc; based on the value calculated in Supplementary Table 4): 0.00633 s⁻¹ | kOn Nano-BRET Single Concentration (FFA1-Nluc; no pre-treatment, NBD/Nluc (Sup. Fig. 10A)): 23333.33 M⁻¹ s⁻¹ | Kd (FFA1-Nluc; no pre-treatment, read-out: Kd Nano-BRET Single Concentration (kinetic)): 270 nM
